Molecules are shown by their SMILES.

The first assay deals with NMDA receptor containing the NR2B subunit (Rattus norvegicus, UniProt P35439+Q00960).
NMDA receptor containing the NR2B subunit (Rattus norvegicus, UniProt P35439+Q00960), sequence (Q00960 27-1482, other chains not shown): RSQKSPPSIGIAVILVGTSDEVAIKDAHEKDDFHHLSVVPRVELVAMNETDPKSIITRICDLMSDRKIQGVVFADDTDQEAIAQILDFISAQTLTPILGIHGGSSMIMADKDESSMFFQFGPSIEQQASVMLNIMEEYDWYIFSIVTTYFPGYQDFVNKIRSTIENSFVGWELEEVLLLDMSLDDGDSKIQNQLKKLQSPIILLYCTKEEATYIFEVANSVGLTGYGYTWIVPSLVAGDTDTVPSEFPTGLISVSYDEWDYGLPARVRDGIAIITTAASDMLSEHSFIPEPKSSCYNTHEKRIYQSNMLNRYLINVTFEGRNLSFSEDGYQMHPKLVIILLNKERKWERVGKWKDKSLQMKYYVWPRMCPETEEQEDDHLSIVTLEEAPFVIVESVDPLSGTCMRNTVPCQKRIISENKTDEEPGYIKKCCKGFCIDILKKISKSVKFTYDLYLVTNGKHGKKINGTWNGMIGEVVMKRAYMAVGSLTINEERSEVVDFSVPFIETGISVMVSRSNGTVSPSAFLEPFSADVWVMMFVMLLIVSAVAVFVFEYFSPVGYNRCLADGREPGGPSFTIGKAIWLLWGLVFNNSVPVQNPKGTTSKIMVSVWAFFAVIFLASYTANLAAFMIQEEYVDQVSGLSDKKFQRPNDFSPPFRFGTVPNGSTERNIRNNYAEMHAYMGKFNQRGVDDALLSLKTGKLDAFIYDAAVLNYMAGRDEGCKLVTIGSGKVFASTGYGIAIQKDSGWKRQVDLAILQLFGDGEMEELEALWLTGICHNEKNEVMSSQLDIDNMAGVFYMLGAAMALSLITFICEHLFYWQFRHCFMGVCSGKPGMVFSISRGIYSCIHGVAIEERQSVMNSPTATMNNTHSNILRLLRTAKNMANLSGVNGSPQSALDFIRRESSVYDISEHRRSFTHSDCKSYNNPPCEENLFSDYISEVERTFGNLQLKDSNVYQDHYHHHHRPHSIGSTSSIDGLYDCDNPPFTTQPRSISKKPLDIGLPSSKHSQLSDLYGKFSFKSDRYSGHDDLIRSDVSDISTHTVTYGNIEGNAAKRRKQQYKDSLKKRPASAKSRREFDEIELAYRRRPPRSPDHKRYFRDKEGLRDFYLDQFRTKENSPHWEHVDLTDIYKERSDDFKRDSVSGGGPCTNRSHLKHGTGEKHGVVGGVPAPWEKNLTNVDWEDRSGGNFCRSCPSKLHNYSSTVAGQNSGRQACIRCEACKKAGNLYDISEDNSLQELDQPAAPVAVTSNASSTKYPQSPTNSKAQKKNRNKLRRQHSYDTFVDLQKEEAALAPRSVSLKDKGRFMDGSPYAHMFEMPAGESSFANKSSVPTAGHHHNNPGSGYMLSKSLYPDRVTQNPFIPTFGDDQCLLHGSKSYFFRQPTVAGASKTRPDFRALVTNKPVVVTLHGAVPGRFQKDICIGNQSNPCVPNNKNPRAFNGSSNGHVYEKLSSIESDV
Test: not given
As to conditions: rodents; cited from earlier work.
For the compound `C[C@@H]([C@@H](O)c1ccc(O)cc1)N1CCC(O)(c2ccccc2)CC1` [CP-101, 606], the “number of occurrence and depth of cortical spreading depression” value was “suppress the number of occurrence and the depth of cortical spreading depression”. In the case of `C[C@@H](CN1CCC(Cc2ccccc2)CC1)[C@@H](O)c1ccc(O)cc1` [Ro25-6981], the “number of occurrence and depth of cortical spreading depression” value was “suppress the number of occurrence and the depth of cortical spreading depression”.

Another assay deals with T1, Human GRIN1 and human GRIN2B expressing HEK293 cells (Homo sapiens, UniProt Q13224).
T1 construct: host or cells: HEK293
T1 sequence (Q13224 27-1484, other chains not shown): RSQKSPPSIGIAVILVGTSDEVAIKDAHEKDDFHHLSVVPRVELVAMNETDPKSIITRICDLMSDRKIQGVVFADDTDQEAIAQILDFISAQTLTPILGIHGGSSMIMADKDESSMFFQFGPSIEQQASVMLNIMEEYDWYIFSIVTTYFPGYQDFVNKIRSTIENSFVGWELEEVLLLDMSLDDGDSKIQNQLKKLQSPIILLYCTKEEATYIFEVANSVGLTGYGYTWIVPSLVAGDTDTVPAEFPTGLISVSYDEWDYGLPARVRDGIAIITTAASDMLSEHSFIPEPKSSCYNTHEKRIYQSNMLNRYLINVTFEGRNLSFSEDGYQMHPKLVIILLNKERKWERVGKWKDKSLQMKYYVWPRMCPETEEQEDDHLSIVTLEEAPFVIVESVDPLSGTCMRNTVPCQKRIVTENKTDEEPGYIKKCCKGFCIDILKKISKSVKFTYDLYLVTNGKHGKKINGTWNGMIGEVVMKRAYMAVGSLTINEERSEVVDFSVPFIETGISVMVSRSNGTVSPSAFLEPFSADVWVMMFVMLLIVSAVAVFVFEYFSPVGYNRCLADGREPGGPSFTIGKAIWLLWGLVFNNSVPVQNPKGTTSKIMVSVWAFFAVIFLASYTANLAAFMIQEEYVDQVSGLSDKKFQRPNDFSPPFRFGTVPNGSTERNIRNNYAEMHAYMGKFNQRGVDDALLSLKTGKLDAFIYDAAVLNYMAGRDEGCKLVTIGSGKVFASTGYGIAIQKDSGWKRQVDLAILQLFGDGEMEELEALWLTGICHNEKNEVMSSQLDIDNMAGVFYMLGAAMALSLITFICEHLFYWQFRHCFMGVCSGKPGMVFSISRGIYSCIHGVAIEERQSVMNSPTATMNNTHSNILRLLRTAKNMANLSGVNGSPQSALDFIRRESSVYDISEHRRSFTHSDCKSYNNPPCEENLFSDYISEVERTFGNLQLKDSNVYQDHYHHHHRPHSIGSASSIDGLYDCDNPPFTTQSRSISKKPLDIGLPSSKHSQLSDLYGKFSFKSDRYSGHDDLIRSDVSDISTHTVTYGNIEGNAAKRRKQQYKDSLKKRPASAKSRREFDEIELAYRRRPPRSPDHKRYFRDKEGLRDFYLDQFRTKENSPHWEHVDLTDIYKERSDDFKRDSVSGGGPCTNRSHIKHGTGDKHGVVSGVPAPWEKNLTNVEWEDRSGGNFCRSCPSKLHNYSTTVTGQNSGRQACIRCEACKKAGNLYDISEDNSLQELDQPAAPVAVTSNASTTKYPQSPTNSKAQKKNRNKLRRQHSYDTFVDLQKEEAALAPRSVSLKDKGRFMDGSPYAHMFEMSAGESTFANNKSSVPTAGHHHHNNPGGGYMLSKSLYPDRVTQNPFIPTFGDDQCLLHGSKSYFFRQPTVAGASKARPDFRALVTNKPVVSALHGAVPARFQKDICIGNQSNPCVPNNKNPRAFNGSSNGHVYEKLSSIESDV
The experiment in a line: NR2B Ca2+ flux assay. Format: cell-based. As to conditions: 10 μM test compound, glutamic acid/glycine stimulated Fluo-4 fluorescence, FLIPR, read-out: inhibitory rate (@10 μM). As for the experimental part:
Experimental Example 1 NR2B Ca^2+ Flux Assay
Human GRIN1 and human GRIN2B expressing HEK293 cells were purchased from ChanTest. The cells were cultured in a DMEM/F-12 (COSMO BIO, 10-092-CM) medium added with 10% FBS (fetal bovine serum, AusGene), 100 units/mL penicillin, 100 μg/mL streptomycin, 500 μg/mL neomycin, 100 μg/mL Zeocin, 5 μg/mL Blasticidin at 37° C., 5% CO2. The cells were detached from flask with trypsin the day before the assay, suspended in a seeding medium (DMEM (Invitrogen, 31053) added with 10% FBS, 100 units/mL penicillin, 100 μg/mL streptomycin) at 8×10^5 cells/mL, seeded by 25 μL per well in a 384-well plate (Falcon, 356663) at 20000 cells/well, and cultured overnight in an incubator. On the day of the assay, tetracycline (Wako Pure Chemical Industries, Ltd., 209-16561) was diluted with the seeding medium at 2 μg/mL, added at […] to the plate seeded with the cells, and cultured for 2 hr in an incubator. Thereafter, the medium was removed, and the cells were washed with 50 μL/well assay buffer (137 mM NaCl, 4 mM KCl, 1.8 mM CaCl2, 10 mM HEPES (pH 7.2), 10 mM Glucose, 0.1% BSA). Then, a loading buffer (assay buffer added with 2.5 uM Fluo-4AM, 2 mM Amaranth, 1 mM Tartrazine) was added at 25 μL/well, and loading was performed in the incubator for 30 min, and at room temperature for 15 min. A test compound (25 μL) was added, and the cells were stood for 15 min at room temperature. Using FLIPR (Molecular Devices), 25 μL of an assay buffer containing […], 30 μM glycine was added, and the fluorescence signal was measured every 3 seconds for 5 min. The inhibitory activity was calculated as a relative activity value that inhibits 100% of the cumulative value of the fluorescence value of a well added with a buffer free of glutamic acid, glycine, relative to the cumulative value of the fluorescence value of each well.
On the technique in general: Calcium assays in cells follow changes in intracellular calcium, usually with a dye or a luminescent sensor.
Turning to `CN(C(=O)Cc1cccc2nccn12)c1ccc(C(F)(F)F)cc1` [Example 51, 2-(imidazo[1,2-a]pyridin-5-yl)-N-methyl-N-(4-(trifluoromethyl)phenyl)-acetamide], the inhibition at 10 µM turned out to be 56%. Same read-out and setting: to `CCN(C(=O)Cc1cccc2nccn12)c1ccc(OC(F)(F)F)cc1` [Example 59, N-ethyl-2-(imidazo[1,2-a]pyridin-5-yl)-N-(4-(trifluoromethoxy)-phenyl)acetamide] belongs 57%.

For the compound `O=C(Cc1cccc2nccn12)Nc1ccc(S(F)(F)(F)(F)F)cc1` [Example 62, 2-(imidazo[1,2-a]pyridin-5-yl)-N-(4-(pentafluoro-λ^6-sulfanyl)phenyl)-acetamide], the inhibition at 10 µM is 82%. The same measure, in the same setting: to `O=C(Cc1cccc2nccn12)Nc1ccc(OC(F)(F)F)nc1` [Example 63, 2-(imidazo[1,2-a]pyridin-5-yl)-N-(6-(trifluoromethoxy)-pyridin-3-yl)acetamide] belongs 85%; to `CC(C)(C)c1ccc(NC(=O)Cc2cccc3nccn23)cc1` [Example 64, N-(4-tert-butylphenyl)-2-(imidazo[1,2-a]pyridin-5-yl)acetamide], 84%; to `O=C(Cc1cccc2nccn12)Nc1cc2ccccc2s1` [Example 65, N-(1-benzothiophen-2-yl)-2-(imidazo[1,2-a]pyridin-5-yl)acetamide], 83%. The same measure, in the same setting: then `CC(C)c1ccc(NC(=O)Cc2cccc3nccn23)cc1` [Example 66, 2-(imidazo[1,2-a]pyridin-5-yl)-N-(4-isopropylphenyl)acetamide], with 92%.

Regarding `O=C(Cc1cccc2nccn12)Nc1ccc2c(c1)CCO2` [Example 67, N-(2,3-dihydro-1-benzofuran-5-yl)-2-(imidazo[1,2-a]pyridin-5-yl)acetamide], the inhibition at 10 µM stood at 78%. On the same count and under the same terms, to `O=C(Cc1cccc2nccn12)Nc1ccc(C(F)F)cc1` [Example 69, N-(4-(difluoromethyl)phenyl)-2-(imidazo[1,2-a]pyridin-5-yl)acetamide] belongs 87%.

Take `Cc1cc(CC(=O)Nc2ccc(C(F)(F)F)cc2)n2ccnc2c1` [Example 71, 2-(7-methylimidazo(1,2-a]pyridin-5-yl)-N-(4-(trifluoromethyl)phenyl)-acetamide]: the inhibition at 10 µM worked out at 51%.

In the case of `O=C(Cc1c(F)ccc2nccn12)Nc1ccc(C(F)(F)F)cc1` [Example 73, 2-(6-fluoroimidazo[1,2-a]pyridin-5-yl)-N-(4-(trifluoromethyl)phenyl)-acetamide], the inhibition at 10 µM is 73%.

For `O=C(Cc1cccc2nccn12)Nc1ccc(OC2CCC2)cc1` [Example 75, N-(4-(cyclobutyloxy)phenyl)-2-(imidazo[1,2-a]pyridin-5-yl)acetamide], the inhibition at 10 µM was 68%. The same measure, in the same setting: to `CCc1ccc2nccn2c1CC(=O)Nc1ccc(OC(F)(F)F)cc1` [Example 78, 2-(6-ethylimidazo[1,2-a]pyridin-5-yl)-N-(4-(trifluoromethoxy)phenyl)acetamide] belongs 97%; to `Cc1ccc2nccn2c1CC(=O)Nc1ccc(OC(F)(F)F)cc1` [Example 79, 2-(6-methylimidazo[1,2-a]pyridin-5-yl)-N-(4-(trifluoromethoxy)phenyl)acetamide], 95%. As for `COc1ccc2nccn2c1CC(=O)Nc1ccc(OC(F)(F)F)cc1` [Example 80, 2-(6-methoxyimidazo[1,2-a]pyridin-5-yl)-N-(4-(trifluoromethoxy)phenyl)acetamide], the inhibition at 10 µM worked out at 94%.

Turning to `CCc1ccc2nccn2c1CC(=O)Nc1ccc(C(F)(F)F)cc1` [Example 81, 2-(6-ethylimidazo[1,2-a]pyridin-5-yl)-N-(4-(trifluoromethyl)phenyl)-acetamide], the inhibition at 10 µM came out at 95%. Same read-out and setting: then `O=C(Cc1cccc2nccn12)Nc1ccc(I)c(F)c1` [Example 82, N-(3-fluoro-4-iodophenyl)-2-(imidazo[1,2-a]pyridin-5-yl)acetamide], with 94%; and `O=C(Cc1cccc2nccn12)Nc1ccc(Br)c(F)c1` [Example 83, N-(4-bromo-3-fluorophenyl)-2-(imidazo[1,2-a]pyridin-5-yl)acetamide], with 93%; and `CC(C(=O)Nc1ccc(OC(F)(F)F)cc1)c1cccc2nccn12` (stereo not drawn) [Example 84, 2-(imidazo[1,2-a]pyridin-5-yl)-N-(4-(trifluoromethoxy)-phenyl)propanamide], with 94%.

As to `Cc1cn2c(CC(=O)Nc3ccc(OC(F)(F)F)cc3)cccc2n1` [Example 85, 2-(2-methylimidazo[1,2-a]pyridin-5-yl)-N-(4-(trifluoromethoxy)-phenyl)acetamide], the inhibition at 10 µM was found to be 91%. `O=C(Cc1cc(F)cc2nccn12)Nc1ccc(OC(F)(F)F)cc1` [Example 86, 2-(7-fluoroimidazo[1,2-a]pyridin-5-yl)-N-(4-(trifluoromethoxy)-phenyl)acetamide]: the inhibition at 10 µM was 93%. Still for that read-out and setting: then `Cc1ccc2nccn2c1CC(=O)Nc1ccc(C(F)(F)F)cc1` [Example 87, 2-(6-methylimidazo[1,2-a]pyridin-5-yl)-N-(4-(trifluoromethyl)phenyl)-acetamide], with 93%.

Turning to `O=C(Cc1cccc2nccn12)Nc1ccc(Br)cc1` [Example 88, N-(4-bromophenyl)-2-(imidazo[1,2-a]pyridin-5-yl)acetamide], the inhibition at 10 µM is 91%. Regarding `COc1ccc2nccn2c1CC(=O)Nc1ccc(C(F)(F)F)cc1` [Example 89, 2-(6-methoxyimidazo[1,2-a]pyridin-5-yl)-N-(4-(trifluoromethyl)phenyl)-acetamide], the inhibition at 10 µM turned out to be 92%.

On to `O=C(Cc1cc(F)cc2nccn12)Nc1ccc(C(F)(F)F)cc1` [Example 90, 2-(7-fluoroimidazo[1,2-a]pyridin-5-yl)-N-(4-(trifluoromethyl)phenyl)-acetamide], for which the inhibition at 10 µM worked out at 88%.

Consider `O=C(Cc1c(Cl)ccc2nccn12)Nc1ccc(OC(F)(F)F)cc1` [Example 91, 2-(6-chloroimidazo[1,2-a]pyridin-5-yl)-N-(4-(trifluoromethoxy)-phenyl)acetamide], for which the inhibition at 10 µM was found to be 91%. Still for that read-out and setting: then `O=C(Cc1cccc2nccn12)Nc1ccc(OC(F)(F)F)cn1` [Example 92, 2-(imidazo[1,2-a]pyridin-5-yl)-N-(5-(trifluoromethoxy)-pyridin-2-yl)acetamide], with 87%. Same read-out and setting: to `CC(C(=O)Nc1ccc(C(F)(F)F)cc1)c1cccc2nccn12` (stereo not drawn) [Example 93, 2-(imidazo[1,2-a]pyridin-5-yl)-N-(4-(trifluoromethyl)phenyl)-propanamide] belongs 89%; to `O=C(Cc1ccc(F)c2nccn12)Nc1ccc(OC(F)(F)F)cc1` [Example 94, 2-(8-fluoroimidazo[1,2-a]pyridin-5-yl)-N-(4-(trifluoromethoxy)-phenyl)acetamide], 85%.

Turning to `CCc1ccc(NC(=O)Cc2cccc3nccn23)nc1` [Example 95, N-(5-ethylpyridin-2-yl)-2-(imidazo[1,2-a]pyridin-5-yl)acetamide], the inhibition at 10 µM amounted to 76%.

In a further assay the target is T2, NMDA receptor containing the NR2B subunit (Homo sapiens, UniProt Q05586+Q13224).
T2 sequence (Q13224 27-1484, other chains not shown): as above
Test: not given
As to conditions: continuous intravenous administration; cited from earlier work.
As for `C[C@@H]([C@@H](O)c1ccc(O)cc1)N1CCC(O)(c2ccccc2)CC1` [CP-101, 606], the treatment resistant-depression symptom result is on record as “significantly improves treatment resistant-depression symptom”.

The next assay relates to NMDA receptor.
Test: not given
As to conditions: continuous intravenous administration; cited from earlier work.
`CNC1(c2ccccc2Cl)CCCCC1=O` (stereo not drawn) [ketamine]: the “depression symptom accompanying major depression and bipolar disorder” value was “improves depression symptom accompanying major depression and bipolar disorder rapidly and in a sustained manner”.

In another assay the test system is NMDA receptor.
Test: not given
As to conditions: in vivo; cited from earlier work.
As to `CC12CC3CC(C)(C1)CC(N)(C3)C2` [memantine], the “peripheral symptoms of dementia” value is “partially improves peripheral symptoms of dementia”.

The next assay has as its target T2, NMDA receptor containing the NR2B subunit.
Test: not given
The settings on record: in vivo; cited from earlier work.
Take `CC(C(O)c1ccc(O)cc1)N1CCC(Cc2ccccc2)CC1` (stereo not drawn) [Ifenprodil]: the pain sense threshold entry is “pain sense threshold increases”.
